{
  "source": "paper PMC11508974",
  "about": "“Computational Approach to Identifying New Chemical Entities as Elastase Inhibitors with Potential Antiaging Effects” (International Journal of Molecular Sciences, 2024)",
  "target": "T1, porcine pancreatic elastase (PPE) (Sus scrofa, UniProt P00772)",
  "T1 construct": "gene CELA1",
  "T1 sequence (P00772 27-266)": "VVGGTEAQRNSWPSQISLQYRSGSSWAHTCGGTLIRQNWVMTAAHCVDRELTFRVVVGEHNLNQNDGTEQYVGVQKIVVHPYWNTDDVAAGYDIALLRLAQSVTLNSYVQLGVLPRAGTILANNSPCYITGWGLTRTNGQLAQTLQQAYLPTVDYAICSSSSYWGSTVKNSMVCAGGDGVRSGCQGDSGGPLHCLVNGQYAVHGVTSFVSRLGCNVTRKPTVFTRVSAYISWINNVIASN",
  "test": "Chromogenic elastase inhibition assay with SANA substrate, p-nitroaniline release",
  "format": "biochemical",
  "data": [
    {"smiles": "Cc1cc(C)cc(Cn2c(SCC(=O)Nc3ccc(C)cc3Cl)nc3ccccc32)c1", "note": "[compound 2, N-(2-chloro-4-methylphenyl)-2-[[1-[(3,5-dimethylphenyl)methyl]-1H-benzimidazol-2-yl]thio]acetamide]", "values": [
      {"measurement": "IC50", "result": "60.4 ± 1.98", "unit": "µM"}
    ]}
  ]
}
